From patent EP0978280A1, “2-[…]” (priority 1997, dated 1998)
Structures can show the parent of a compound that is named as a salt.

Target: T1, Nicotinic acetylcholine receptor (Rattus norvegicus, UniProt P09483+P12390)
T1 construct: the rat was decapitated, and the whole brain was removed and homogenized; from tissue; host or cells: rat whole brain membrane fraction
Details: 10 nM of the test drug; 1 nM of ^3H-cytidine; rat whole brain membrane fraction; 4°C for 75 min; nonspecific binding with 10 µM (-)nicotine
Description: Nicotinic acetylcholine receptor binding assay
The membrane fraction was prepared in accordance with the protocol described in Brain Res., 100, 81-87 (1977). Thus, the rat was decapitated, and the whole brain was removed and homogenized with 15 volumes of cold 0.32 M aqueous sucrose solution using a Teflon homogenizer. The homogenate was centrifuged at 4°C and 1,000 x g for 10 mm. and the supernatant obtained was centrifuged at 4°C and 20,000 x g for 20 min. Then, ice-cold distilled water was added to the pellet, and the pellet was suspended using Hiscotron®. The suspension was centrifuged at 4°C and 8,000 x g for 20 min. and the supernatant and the buffy coat layer were recovered and centrifuged again at 4°C and 40,000 x g for 20 min. The pellet obtained was suspended in cold distilled water and stored at -80°C until used.
The receptor binding experiment was performed in accordance with the protocol described in J. Pharamcol. Exp. Ther., 270, 310-318 (1994). Thus, the rat whole brain membrane fraction (ca 200 µg) was incubated in BSS-Tris buffer [composition mM: NaCl 120, KCl 5, CaCl22, MgCl22, Tris-HCl 50 (pH=7.4, at 4°C)] containing 1 nM of ^3H-cytidine and 10 nM of the test drug at 4°C for 75 min. To stop the reaction, 4 ml of cold BSS-Tris buffer was added and the reaction mixture was immediately suction-filtered on GF/B glass fiber filter paper which had been pre-soaked in 0.5% polyethyleneimine. The filter paper was recovered, 4 ml of ACS-II (Amersham, TM) was added, and the ^3H radioactivity was determined with a scintillation counter. Based on the value (specific binding) obtained after subtraction of the ^3H-binding (nonspecific binding) amount in the presence of 10 µM (-)nicotine, the inhibition rate of ^3H-cytidine binding at the 10 nM concentration of each drug was calculated.

T1 sequence (P09483 31-630): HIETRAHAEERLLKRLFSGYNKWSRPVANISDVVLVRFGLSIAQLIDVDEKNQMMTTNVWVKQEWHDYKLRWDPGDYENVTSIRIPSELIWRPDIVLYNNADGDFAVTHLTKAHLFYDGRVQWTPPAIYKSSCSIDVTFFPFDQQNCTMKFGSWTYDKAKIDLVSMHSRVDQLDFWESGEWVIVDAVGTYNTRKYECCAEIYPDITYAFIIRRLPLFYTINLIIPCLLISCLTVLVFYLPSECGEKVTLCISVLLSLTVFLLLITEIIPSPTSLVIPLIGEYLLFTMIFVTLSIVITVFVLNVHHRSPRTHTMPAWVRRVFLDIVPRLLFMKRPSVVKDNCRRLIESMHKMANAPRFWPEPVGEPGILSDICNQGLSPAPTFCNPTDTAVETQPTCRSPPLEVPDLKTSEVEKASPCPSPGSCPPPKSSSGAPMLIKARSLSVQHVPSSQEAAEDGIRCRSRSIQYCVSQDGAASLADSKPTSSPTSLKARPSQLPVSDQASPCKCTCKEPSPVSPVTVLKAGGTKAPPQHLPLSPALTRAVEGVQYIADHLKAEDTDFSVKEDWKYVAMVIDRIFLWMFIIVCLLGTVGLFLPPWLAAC
T1 sequence (P12390 25-500): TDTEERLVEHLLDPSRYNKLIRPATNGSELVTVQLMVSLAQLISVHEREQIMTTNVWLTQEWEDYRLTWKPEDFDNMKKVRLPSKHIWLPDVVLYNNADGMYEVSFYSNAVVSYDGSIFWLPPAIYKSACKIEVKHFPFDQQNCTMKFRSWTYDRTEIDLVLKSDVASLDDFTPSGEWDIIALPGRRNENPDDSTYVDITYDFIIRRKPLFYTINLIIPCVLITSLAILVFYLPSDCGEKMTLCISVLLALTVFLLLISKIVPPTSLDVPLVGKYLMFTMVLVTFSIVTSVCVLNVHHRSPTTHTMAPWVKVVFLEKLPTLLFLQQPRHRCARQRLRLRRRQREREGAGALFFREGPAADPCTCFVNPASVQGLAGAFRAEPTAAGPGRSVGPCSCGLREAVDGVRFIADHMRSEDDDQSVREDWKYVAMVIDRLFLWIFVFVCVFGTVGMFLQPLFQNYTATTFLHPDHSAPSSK

SMILES | Inhibition of ^3H-Cytidine binding [%]
c1cncc(C2CC3CCCC2NC3)c1 (stereo not drawn) [Example 31, Syn-8-(3-pyridyl)-7-azabicyclo[3. 2. 2.]nonane] | 84
c1cncc(C2CC3CCC2NC3)c1 (stereo not drawn) [Example 1, Syn-6-(3-pyridyl)-2-azabicyclo[2. 2. 2]octane oxalate] | 94
c1cncc(C2CC3CC2CN3)c1 (stereo not drawn) [Example 30, Syn-5-(3-pyridyl)-2-azabicyclo[2. 2. 1]heptane] | 87
c1ccc(-c2cncc(C3CC4CCC3NC4)c2)cc1 (stereo not drawn) [Example 29, Syn-6-(5-phenyl-3-pyridyl)-2-azabicyclo[2. 2. 2]octane] | 86
Cc1cc(C2CC3CCC2NC3)on1 (stereo not drawn) [Example 18, Syn-6-(3-methyl-5-isoxazolyl)-2-azabicyclo[2. 2. 2]octane] | 84
c1ncc(C2CC3CCC2NC3)cn1 (stereo not drawn) [Example 16, Syn-6-(5-pyrimidinyl)-2-azabicyclo[2. 2. 2]octane] | 93
C#Cc1cncc(C2CC3CCC2NC3)c1 (stereo not drawn) [Example 28, Syn-6-(5-ethynyl-3-pyridyl)-2-azabicyclo[2. 2. 2]octane] | 91
C1=C(c2cnccn2)C2CCC1CN2 (stereo not drawn) [Example 23, 6-(2-Pyrazinyl)-2-azabicyclo[2. 2. 2]oct-5-ene] | 39
Brc1cncc(C2=CC3CCC2CN3)c1 (stereo not drawn) [Example 24, 5-(5-Bromo-3-pyridyl)-2-azabicyclo[2. 2. 2]oct-5-ene] | 92
